Measured values from article PMC5428041, “Dynamic equilibrium on DNA defines transcriptional regulation of a multidrug binding transcriptional repressor, LmrR” (Scientific Reports, 2017).

Molecular target: T1, LmrR (Lactococcus cremoris, UniProt A2RI36)
T1 construct: gene llmg_0323; C-terminal His6-tagged LmrR (homodimer)
Assay: ITC ([…] stoichiometry, […] °C); supported by NMR titration
Assay type: binding

T1 sequence (A2RI36 entry or part of it): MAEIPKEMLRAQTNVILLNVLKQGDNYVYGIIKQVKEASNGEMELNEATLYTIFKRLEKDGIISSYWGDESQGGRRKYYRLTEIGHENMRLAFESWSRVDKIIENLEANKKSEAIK

Kd: 330 nM
SMILES: Cc1cc2nc3c(=O)[nH]c(=O)nc-3n(C[C@H](O)[C@H](O)[C@H](O)CO)c2cc1C [riboflavin]
